Data published in patent US20120122727A1, “IN VITRO METHOD FOR PREDICTING WHETHER A COMPOUND IS GENOTOXIC IN VIVO” (priority 2009, published 2012).

Tested on: primary mouse hepatocytes
Test: Gene expression (Affymetrix Mouse Genome 430 2.0) in primary mouse hepatocytes, true vs false GTX, 24 h and 48 h
Conditions: 48 h; log2, corrected for vehicle control

CN(C)N=O [DMN, Dimethylnitrosamine]
Gene expression AF297615 average: 3.153
Gene expression AF335325 average: 1.6857
Gene expression AI594683 average: 3.7761
Gene expression AI747296 average: −0.4333
Gene expression AK005731 average: 4.617
Gene expression AK007854 average: 0.8396
Gene expression AK010447 average: −0.8634
Gene expression AK010738 average: 1.343
Gene expression AK014608 average: 1.391
Gene expression AK017734 average: 1.0611
Gene expression AK018383 average: 0.8246
Gene expression AK019979 average: −1.11
Gene expression AV095209 average: −0.454
Gene expression AV141095 average: −0.8663
Gene expression AV173869 average: −1.272
Gene expression AV216768 average: −0.2641
Gene expression AV219418 average: 4.5473
Gene expression AV221299 average: −1.5693
Gene expression AV246296 average: 0.9572
Gene expression AV251625 average: 1.246
Gene expression AV254764 average: 1.133
Gene expression AV327248 average: 4.023
Gene expression BB009155 average: 2.343
Gene expression BB027848 average: 1.191
Gene expression BB043558 average: 2.187
Gene expression BB046347 average: 0.7743
Gene expression BB140436 average: −1.281
Gene expression BB204486 average: −0.3108
Gene expression BB223872 average: 1.694
Gene expression BB246912 average: −0.9806
Gene expression BB275142 average: 1.162
Gene expression BB458460 average: −0.6934
Gene expression BB463610 average: 1.546
Gene expression BB730977 average: −0.656
Gene expression BB743970 average: 3.154
Gene expression BB770528 average: 1.709
Gene expression BB781615 average: 1.487
Gene expression BC003284 average: 1.379
Gene expression BC004827 average: −1.0689
Gene expression BC005552 average: −0.5235
Gene expression BC006713 average: 1.668
Gene expression BC010318 average: −1.167
Gene expression BC012247 average: 1.67
Gene expression BC012955 average: −1.97
Gene expression BC013893 average: 0.5487
Gene expression BC017615 average: −2.7334
Gene expression BC019379 average: −0.3602
Gene expression BC019882 average: 1.494
Gene expression BC021352 average: 3.512
Gene expression BC022148 average: 1.8449
Gene expression BC025169 average: −1.296
Gene expression BC026131 average: −0.7571
Gene expression BC027026 average: 2.571
Gene expression BC027121 average: 2.075
Gene expression BC027185 average: 1.462
Gene expression BE956581 average: 3.033
Gene expression BF719766 average: 1.2016
Gene expression BG065754 average: 0.9953
Gene expression BG066491 average: −0.9757
Gene expression BG076151 average: 1.205
Gene expression BG076333 average: −0.7995
Gene expression BG797099 average: 1.704
Gene expression BG967046 average: 1.1973
Gene expression BI651416 average: 1.8588
Gene expression BI966443 average: 3.295
Gene expression BM198879 average: 1.096
Gene expression BM200015 average: 1.16
Gene expression BM230508 average: 1.54
Gene expression BM936480 average: 0.7781
Gene expression BQ174991 average: −0.28
Gene expression L21027 average: −0.4472
Gene expression NM_007556 average: −1.29
Gene expression NM_007980 average: 0.3252
Gene expression NM_007987 average: 1.665
Gene expression NM_008522 average: 4.993
Gene expression NM_008935 average: −1.382
Gene expression NM_009897 average: 3.619
Gene expression NM_011075 average: 2.401
Gene expression NM_011176 average: 1.597
Gene expression NM_011316 average: 2.0898
Gene expression NM_012006 average: 1.6671
Gene expression NM_013642 average: 0.3461
Gene expression NM_013738 average: 1.562
Gene expression NM_013929 average: 1.891
Gene expression NM_018881 average: 0.9481
Gene expression NM_019738 average: −2.9169
Gene expression NM_030697 average: 2.5583
Gene expression NM_053122 average: −2.3248
Gene expression NM_134147 average: −1.579
Gene expression NM_134188 average: −0.6378
Gene expression X62701 average: 0.07157
